Reference: BindingDB's records for doi:10.1016/S0960-894X(00)80304-2 (1993)

Target: Leukotriene B4 receptor 1 (Cavia porcellus)
Assay: Binding affinity against LTB4 receptor in guinea pig membrane

Ki [nM] | SMILES
19 | CCCc1c(OCCCOc2cc(O)c(C(C)=O)cc2CC)cccc1OC(C)C(=O)O (configuration not stated) [2-{3-[3-(4-Acetyl-2-ethyl-5-hydroxy-phenoxy)-propoxy]-2-propyl-phenoxy}-propionic acid]
5 | CCCc1c(OCCCOc2cc(O)c(C(C)=O)cc2CC)cccc1OCC(=O)O [{3-[3-(4-Acetyl-2-ethyl-5-hydroxy-phenoxy)-propoxy]-2-propyl-phenoxy}-acetic acid]
